Values quoted from earlier work as cited in patent publication US20170119783A1, “Method for Treating Cognitive Impairment Associated With Neurodegenerative Disorders” (priority 2014, published 2017).
Read-outs that look alike come from different tables or passages of the source. Blank lines part the entries; values can stand above or below the compound they belong to.

What was measured:
cancer cells = settings: more effective for hepatoma and embryonic lung cells than human gastric cancer cells
[1] = system: Ehrlich ascots tumor cells
nucleic acid synthesis = settings: relative to artemisinin
[2] = within the group of artemisinin analogs

water solubility (in words): poor water solubility
Compound: C[C@@H]1CC[C@H]2[C@@H](C)C(=O)O[C@@H]3O[C@@]4(C)CC[C@@H]1[C@]32OO4 [Artemisinin, (3R,5aS,6R,8aS,9R,12S,12aR)-octahydro-3,6,9-trimethyl-3,12-epoxy-12H-pyr-ano[4,3-j]-1,2-benzodioxepin-10(3H)-one]
toxicity to cancer cells in vitro (in words) (cancer cells): toxic to cancer cells in vitro | efficacy against Ehrlich ascots tumor cells (in words) [1]: efficacy against Ehrlich ascots tumor cells

water solubility (in words): higher solubility in water
Compound: CO[C@H]1O[C@@H]2O[C@@]3(C)CC[C@H]4[C@H](C)CC[C@@H]([C@H]1C)[C@@]24OO3 [Artemether]

Compound: CCCOC(=O)OC1O[C@@H]2O[C@@]3(C)CC[C@H]4[C@H](C)CC[C@@H]([C@H]1C)[C@@]24OO3 (stereo partly shown) [propylcarbonate dihydroartemisinin]
ability to inhibit nucleic acid synthesis, times the activity of artemisinin (nucleic acid synthesis): 100 times | water solubility (in words): higher solubility in water

Compound: C[C@H]1[C@H](N2CCS(=O)(=O)CC2)O[C@@H]2O[C@@]3(C)CC[C@H]4[C@H](C)CC[C@@H]1[C@@]24OO3 [Artemisone]
antimalarial activity (in words) (Plasmodium falciparum; Haynes et al. 2006): high antimalarial activity

Compound: CCO[C@H]1O[C@@H]2O[C@@]3(C)CC[C@H]4[C@H](C)CC[C@@H]([C@H]1C)[C@@]24OO3 [arteether]
ability to inhibit nucleic acid synthesis, times the activity of artemisinin (nucleic acid synthesis): 100 times | water solubility (in words): higher solubility in water | efficacy against Ehrlich ascots tumor cells (in words) [1]: efficacy against Ehrlich ascots tumor cells

Compound: C[C@H]1[C@H](OC(=O)CCC(=O)O)O[C@@H]2O[C@@]3(C)CC[C@H]4[C@H](C)CC[C@@H]1[C@@]24OO3 [artesunate]
ability to inhibit nucleic acid synthesis, times the activity of artemisinin (nucleic acid synthesis): 100 times | antimalarial potency, times that of artemisinin (Plasmodium falciparum; relative to artemisinin): 5.2 times

Compound: C[C@H]1[C@@H](OCc2ccc(C(=O)O)cc2)O[C@@H]2O[C@]3(C)CC[C@H]4[C@H](C)CC[C@@H]1[C@@]24OO3 [sodium artelinate]
efficacy against Ehrlich ascots tumor cells (in words) [1]: efficacy against Ehrlich ascots tumor cells

Compound: C[C@H]1[C@H](OC(=O)CCC(=O)[O-])O[C@@H]2O[C@@]3(C)CC[C@H]4[C@H](C)CC[C@@H]1[C@@]24OO3.[Na+] [sodium artesunate]
efficacy against Ehrlich ascots tumor cells (in words) [1]: efficacy against Ehrlich ascots tumor cells

water solubility (in words): higher solubility in water
Compound: C[C@H]1[C@@H](O)O[C@@H]2O[C@@]3(C)CC[C@H]4[C@H](C)CC[C@@H]1[C@@]24OO3 [Dihydroartemisinin]

Compound: C[C@@H]1[C@H](OCc2ccc(C(=O)O)cc2)O[C@@H]2O[C@@]3(C)CC[C@@H]4[C@@H](C)CC[C@@H]1[C@]24OO3 [Artelinic acid]
water solubility (in words): most water-soluble | water solubility (in words) (listed as artelinic acid): higher solubility in water | stability (in words) [2]: most stable | efficacy against Ehrlich ascots tumor cells (in words) [1]: efficacy against Ehrlich ascots tumor cells
